{
  "source": "ChEMBL document CHEMBL6074684",
  "about": "“Structure-activity relationship study of novel evodiamine amino acid conjugates with potent anti-colorectal cancer efficacy” (Eur J Med Chem, 2025)",
  "key": {"LoVo [1]": {"test_system": "LoVo", "assay": "Antiproliferative activity against human LoVo cells assessed as inhibition of cell growth incubated for 72 hrs by MTT assay", "format": "functional, cell-based"}, "MGC-803": {"test_system": "MGC-803", "assay": "Antiproliferative activity against human MGC-803 cells assessed as inhibition of cell growth incubated for 72 hrs by MTT assay", "format": "functional, cell-based", "settings": "MGC-803, 72 h"}, "SGC-7901": {"test_system": "SGC-7901", "assay": "Antiproliferative activity against human SGC-7901 cells assessed as inhibition of cell growth incubated for 72 hrs by MTT assay", "format": "functional, cell-based", "settings": "SGC-7901, 72 h"}, "SK-HEP1": {"test_system": "SK-HEP1", "assay": "Antiproliferative activity against human SK-HEP1 cells assessed as inhibition of cell growth incubated for 72 hrs by MTT assay", "format": "functional, cell-based", "settings": "SK-HEP1, 72 h"}, "[2]": {"assay": "Aqueous solubility of compound by HPLC analysis", "format": "physicochemical"}, "[3]": {"assay": "Half-life in male Sprague-Dawley rat at 50 mg/kg, ip measured after 24 hrs by LC-MS/MS analysis", "format": "ADME, organism-based", "settings": "in vivo"}, "[4]": {"assay": "Tmax in male Sprague-Dawley rat at 50 mg/kg, ip measured after 24 hrs by LC-MS/MS analysis", "format": "ADME, organism-based", "settings": "in vivo"}, "[5]": {"assay": "AUC (0 to t) in male Sprague-Dawley rat at 50 mg/kg, ip measured after 24 hrs by LC-MS/MS analysis", "format": "ADME, organism-based", "settings": "in vivo"}, "[6]": {"assay": "Potency index, ratio of topotecan IC50 to test compound IC50 for antiproliferative activity against human LoVo cells assessed as inhibition of cell growth incubated for 72 hrs by MTT assay", "format": "functional"}, "[7]": {"assay": "Potency index, ratio of topotecan IC50 to test compound IC50 for antiproliferative activity against human RKO cells assessed as inhibition of cell growth incubated for 72 hrs by MTT assay", "format": "functional"}, "[8]": {"biological_target": "T1, DNA topoisomerase 1 (Homo sapiens) (UniProt P11387)", "T1 sequence (whole entry)": "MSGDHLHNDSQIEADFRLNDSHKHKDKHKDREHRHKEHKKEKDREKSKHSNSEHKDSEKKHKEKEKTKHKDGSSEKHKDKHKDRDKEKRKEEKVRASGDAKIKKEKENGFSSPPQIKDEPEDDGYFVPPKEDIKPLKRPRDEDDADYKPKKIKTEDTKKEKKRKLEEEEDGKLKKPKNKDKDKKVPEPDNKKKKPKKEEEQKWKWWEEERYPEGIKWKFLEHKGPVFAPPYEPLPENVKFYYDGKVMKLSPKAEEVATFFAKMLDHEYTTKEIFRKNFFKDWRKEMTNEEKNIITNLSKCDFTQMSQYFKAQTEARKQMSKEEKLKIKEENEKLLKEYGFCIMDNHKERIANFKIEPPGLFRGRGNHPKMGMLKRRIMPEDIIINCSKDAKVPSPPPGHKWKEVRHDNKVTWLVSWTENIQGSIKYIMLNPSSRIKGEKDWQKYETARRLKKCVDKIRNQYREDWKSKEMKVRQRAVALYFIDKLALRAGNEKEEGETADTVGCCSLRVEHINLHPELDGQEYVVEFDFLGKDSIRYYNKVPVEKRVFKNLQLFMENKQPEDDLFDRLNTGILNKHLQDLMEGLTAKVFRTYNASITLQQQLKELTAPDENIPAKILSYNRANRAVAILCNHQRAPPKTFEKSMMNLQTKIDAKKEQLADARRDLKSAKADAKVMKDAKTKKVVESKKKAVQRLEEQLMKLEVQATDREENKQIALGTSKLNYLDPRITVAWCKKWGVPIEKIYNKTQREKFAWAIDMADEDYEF", "assay": "Inhibition of topoisomerase 1 (unknown origin) mediated DNA relaxation at 100 uM preincubated for 20 mins followed by pBR322 plasmid DNA addition and measured after 15 mins by red nucleic acid gel staining based agarose gel electrophoresis", "settings": "time 35.0 min"}, "LoVo [9]": {"test_system": "LoVo", "assay": "Cell cycle arrest in human LoVo cells assessed as accumulation of cells at G1 phase cells at 90 nM incubated for 24 hrs by […]PI staining based flow cytometric analysis (reference value: 29.69 %)", "format": "functional"}, "LoVo [10]": {"test_system": "LoVo", "assay": "Cell cycle arrest in human LoVo cells assessed as accumulation of cells at G1 phase cells at 10 nM incubated for 24 hrs by […]PI staining based flow cytometric analysis (reference value: 29.69 %)", "format": "functional"}, "LoVo [11]": {"test_system": "LoVo", "assay": "Cell cycle arrest in human LoVo cells assessed as accumulation of cells at G2 phase cells at 30 nM incubated for 24 hrs by […]PI staining based flow cytometric analysis (reference value: 14.84 %)", "format": "functional"}, "LoVo [12]": {"test_system": "LoVo", "assay": "Cell cycle arrest in human LoVo cells assessed as accumulation of cells at S phase cells at 30 nM incubated for 24 hrs by […]PI staining based flow cytometric analysis (reference value: 54.99 %)", "format": "functional"}, "RKO [13]": {"test_system": "RKO", "assay": "Cell cycle arrest in human RKO cells assessed as accumulation of cells at G1 phase at 90 nM incubated for 24 hrs by […]PI staining based flow cytometric analysis (reference value: 35.29 %)", "format": "functional"}, "RKO [14]": {"test_system": "RKO", "assay": "Cell cycle arrest in human RKO cells assessed as accumulation of cells at G2 phase at 90 nM incubated for 24 hrs by […]PI staining based flow cytometric analysis (reference value: 20.07 %)", "format": "functional"}, "RKO [15]": {"test_system": "RKO", "assay": "Cell cycle arrest in human RKO cells assessed as accumulation of cells at G1 phase at 30 nM incubated for 24 hrs by […]PI staining based flow cytometric analysis (reference value: 35.29 %)", "format": "functional"}, "LoVo [16]": {"test_system": "LoVo", "assay": "Induction of morphological changes in human LoVo cells assessed as appearance of condensed morphology incubated for 24 hrs by Giemsa staining based microscopic analysis", "format": "functional, cell-based", "settings": "dose 10-90 nM"}, "LoVo [17]": {"test_system": "LoVo", "assay": "Induction of morphological changes in human LoVo cells assessed as appearance of contracted nucleus incubated for 24 hrs by Giemsa staining based microscopic analysis", "format": "functional, cell-based", "settings": "dose 10-90 nM"}, "RKO [18]": {"test_system": "RKO", "assay": "Induction of morphological changes in human RKO cells assessed as appearance of condensed morphology incubated for 24 hrs by Giemsa staining based microscopic analysis", "format": "functional, cell-based", "settings": "dose 10-90 nM"}, "RKO [19]": {"test_system": "RKO", "assay": "Induction of morphological changes in human RKO cells assessed as appearance of contracted nucleus incubated for 24 hrs by Giemsa staining based microscopic analysis", "format": "functional, cell-based", "settings": "dose 10-90 nM"}, "Mitochondrial membrane [20]": {"test_system": "Mitochondrial membrane", "assay": "Induction of mitochondrial membrane potential loss in human LoVo cells assessed as TMRE positive cells at 90 nM incubated for 24 hrs by TMRE staining based flow cytometric analysis (reference value: 95.93 %)", "format": "cell membranes"}, "Mitochondrial membrane [21]": {"test_system": "Mitochondrial membrane", "assay": "Induction of mitochondrial membrane potential loss in human RKO cells assessed as TMRE positive cells at 90 nM incubated for 24 hrs by TMRE staining based flow cytometric analysis (reference value: 95.54 %)", "format": "cell membranes"}, "Mitochondrial membrane [22]": {"test_system": "Mitochondrial membrane", "assay": "Induction of mitochondrial membrane potential loss in human LoVo cells assessed as decrease in TMRE positive cells at 10 to 90 nM incubated for 24 hrs by TMRE staining based flow cytometric analysis", "format": "cell membranes", "settings": "dose 10-90 nM"}, "HT-29": {"test_system": "HT-29", "assay": "Antitumor activity against human HT-29 cells xenografted in male BALB/c nude mouse assessed as tumor growth inhibition at 40 mg/kg, ip administered once daily for 14 days relative to control", "format": "functional", "settings": "HT-29, 336 h, time 14 day, read-out: TGI"}, "[23]": {"assay": "Chemical stability of compound in McCoy's 5A cell culture medium containing 1 % DMSO assessed as (S)-3-fluoro-14-(3-fluorophenyl)-10-hydroxy-8,13,13b,14-tetrahydroindolo[2',3':3,4]pyrido[2,1-b]quinazolin-5(7H)-one release by measuring retention time at 100 uM incubated for 24 hrs by HPLC analysis", "format": "physicochemical"}},
  "note": "Calls of active or inactive are those of the source. The rule behind the calls is not given here.",
  "data": [
    {"smiles": "CC(C)(C)OC(=O)N[C@@H](CCC(N)=O)C(=O)Oc1ccc2[nH]c3c(c2c1)CCN1C(=O)c2cc(F)ccc2N(c2cccc(F)c2)[C@H]31", "values": [
      {"measurement": "IC50", "setting": "LoVo [1]", "result": 70, "unit": "nM"},
      {"measurement": "IC50", "setting": "MGC-803", "result": 120, "unit": "nM"},
      {"measurement": "IC50", "setting": "SGC-7901", "result": 490, "unit": "nM"},
      {"measurement": "IC50", "setting": "SK-HEP1", "result": 870, "unit": "nM"},
      {"measurement": "solubility", "setting": "[2]", "result": 11.4, "unit": "µg/mL"},
      {"measurement": "half-life", "setting": "[3]", "result": 1.38, "unit": "h"},
      {"measurement": "Tmax", "setting": "[4]", "result": 1, "unit": "h"},
      {"measurement": "AUC(0-t) at 24 h", "setting": "[5]", "result": 14600, "unit": "ng·h/mL"},
      {"measurement": "Ratio IC50", "setting": "[6]", "result": 3.4},
      {"measurement": "Ratio IC50", "setting": "[7]", "result": 3.4},
      {"measurement": "inhibition", "setting": "[8]", "result": "Active"},
      {"measurement": "Activity", "setting": "LoVo [9]", "result": 25.84, "unit": "%"},
      {"measurement": "Activity", "setting": "LoVo [10]", "result": 26.62, "unit": "%"},
      {"measurement": "Activity", "setting": "LoVo [11]", "result": 61.56, "unit": "%"},
      {"measurement": "Activity", "setting": "LoVo [12]", "result": 26.97, "unit": "%"},
      {"measurement": "Activity", "setting": "RKO [13]", "result": 26.83, "unit": "%"},
      {"measurement": "Activity", "setting": "RKO [14]", "result": 21.72, "unit": "%"},
      {"measurement": "Activity", "setting": "RKO [15]", "result": 16.95, "unit": "%"},
      {"measurement": "Activity", "setting": "LoVo [16]", "result": "Dose-dependent-effect"},
      {"measurement": "Activity", "setting": "LoVo [17]", "result": "Dose-dependent-effect"},
      {"measurement": "Activity", "setting": "RKO [18]", "result": "Dose-dependent-effect"},
      {"measurement": "Activity", "setting": "RKO [19]", "result": "Dose-dependent-effect"},
      {"measurement": "Activity", "setting": "Mitochondrial membrane [20]", "result": 86.7, "unit": "%"},
      {"measurement": "Activity", "setting": "Mitochondrial membrane [21]", "result": 85.1, "unit": "%"},
      {"measurement": "Activity", "setting": "Mitochondrial membrane [22]", "result": "Active"},
      {"measurement": "inhibition in vivo at 40 mg/kg", "setting": "HT-29", "result": 70.1, "unit": "%"},
      {"measurement": "Retention_time", "setting": "[23]", "result": 6.24, "unit": "min"}
    ]}
  ]
}
